The values that follow come from US20220347260A1, “Combination of An Agonist Anti-PD-1 Antibody With a GnRH Agonist or Antagonist to Treat Cancer” (Debiopharm International SA, priority 2017, published 2022).

Experiment [1] in a line: Phase I study Debio 8200-IMM-101, Patient A: serum testosterone levels. The conditions noted are these: baseline Day 1 15.7 nmol/L, castrate range <1.735 nmol/L. The format is in vivo, human. The method, then:
The study involves 3 to 12 treatment cycles (depending on individual responses) of 28 days each. Patients receive triptorelin embonate (pamoate) 3.75 mg one-month formulation i.m. on day 1 of each 28-day cycle and nivolumab (Opdivo®) at 3 mg/kg body weight i.v. (1-hour infusion) on days 1 and 15 of each cycle. On day 1 of each cycle, triptorelin is administered prior to nivolumab. In addition, patients take bicalutamide 50 mg p.o. once daily for 28 days throughout cycle 1 only, to counteract the initial testosterone “flare” induced by triptorelin.
On 12 Jun. 2018 the patient was enrolled in the protocol Debio 8200-IMM-101 and received the first injections of triptorelin -anti-androgen bicalutamide was added for 28 days- and anti-PD-1 molecule nivolumab.
As expected due to triptorelin treatment, the serum testosterone levels of the patient decreased from a baseline (Day 1) level of 15.7 nmol/L on 12 Jun. 2018 to a very low castrate level of 0.6 nmol/L four weeks later 10 Jul. 2018 (Day 29), and have remained in the castrate range (i.e. <1.735 nmol/L) until the last value available to date of 0.69 nmol/L on 29 Oct. 2018 (Day 141).

For another experiment, the system named is melanoma. The conditions noted are these: melanoma patients in phase II or III trials; in some cases for more than ten years; cited from earlier work.
The subject of experiment [2] is melanoma metastasis in the pancreas. The experiment in a line: Patient A: prior pembrolizumab treatment, tumor response by PET-CT. The experiment is classed as in vivo, human. The protocol: A person (at screening on 23 May 2018) […] had been operated on 26 Sep. 2016 for left lung lobectomy for melanoma metastasis of unknown origin. On 21 Aug. 2017, biopsy of PET-CT (Positron emission tomography—computed tomography) detected a new melanoma metastasis in the pancreas. From 27 Sep. 2017 until 13 Mar. 2018 (last administration at Cycle 9) they were treated with anti-PD-1 molecule pembrolizumab. On 12 Dec. […] However, on 30 Mar. […] On 23 May 2018, the size of this unique pancreatic metastasis was 34 mm on CT-scan.

Regarding `CC(C)C[C@H](NC(=O)[C@@H](Cc1c[nH]c2ccccc12)NC(=O)[C@H](Cc1ccc(O)cc1)NC(=O)[C@H](CO)NC(=O)[C@H](Cc1c[nH]c2ccccc12)NC(=O)[C@H](Cc1c[nH]cn1)NC(=O)[C@@H]1CCC(=O)N1)C(=O)N[C@@H](CCCNC(=N)N)C(=O)N1CCC[C@H]1C(=O)NCC(N)=O` [triptorelin, pyroGlu-His-Trp-Ser-Tyr-D-Trp-Leu-Arg-Pro-Gly-NH2], the serum testosterone level in experiment [1] (Day 29 (10 Jul. 2018)) came to 0.6 nmol/L; in experiment [1] (Day 141 (29 Oct. 2018)) it was 0.69 nmol/L. As to “Ipilimumab: fully human IgG1 CTLA-4-blocking monoclonal antibody from Bristol-Myers Squibb”, the “durable survival, patients” value in the experiment with melanoma is on record as “about 20%”.

Take “pembrolizumab: humanized IgG4 monoclonal anti-PD-1 antibody from Merck”: the tumor response entry in experiment [2] (12 Dec. 2017, pembrolizumab from 27 Sep. 2017 until 13 Mar. 2018) is reported as “Partial Response (PR)”; in experiment [2] (30 Mar. 2018, PET-CT, after Cycle 9 of pembrolizumab) it was “progression (PD)”.
